Molecules are shown by their SMILES.

The experiment has as its system C2C12 muscle cells. Description: Analysis of glucose absorption (2-deoxyglucose) in differentiated C2C12 muscle cells. Particulars: test materials 10 μM, times relative to control group. In kind it is cell-based. In short, it runs like this:
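Differentiated C2C12 myotubes (6 days in 1% serum) held 3 h in KRB with 5 mM glucose, then given test material at 10 μM. After 30 min, 0.2 μCi 2-deoxyglucose added for 20 min; uptake measured by radioactive counting of NaOH lysates.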
`c1ccc(-c2nc(NCC3CCCCC3)c3ccccc3n2)cc1` [Compound 132, Cyclohexylmethyl-(2-phenylquinazolino-4-yl)-amine] came in with a Glucose absorption of 1.3.

Molecule `CCCCNc1nc(SCC)nc2ccccc12` [Compound 19, Butyl-(2-ethylsulfanylquinazolino-4-yl)-amine] showed a Glucose absorption of 1.4.

In the case of `c1ccc(CCCCNc2nc(-c3ccccc3)nc3ccccc23)cc1` [Compound 52, (4-Phenylbutyl)-(2-phenylquinazolino-4-yl)-amine], the Glucose absorption was determined as 1.3.

`COc1cccc(CNc2nc(-c3ccccc3)nc3ccccc23)c1OC` [Compound 93, (2,3-Dimethoxybenzyl)-(2-phenylquinazolino-4-yl)-amine] gave a Glucose absorption of 1.1.

`FC(F)(F)c1cccc(CNc2nc(-c3ccncc3)nc3ccccc23)c1` [Compound 250, (2-Pyridino-4-ylquinazolino-4-yl)-(3-trifluoromethylbenzyl)-amine] gave a Glucose absorption of 1.3.

`c1ccc(CCNc2nc(Cc3ccccc3)nc3ccccc23)cc1` [Compound 215, (2-Benzylquinazolino-4-yl)-phenethylamine] had a Glucose absorption of 2.2.

For the molecule `CCSc1nc(NC(CC)COC)c2ccccc2n1` (stereo not shown) [Compound 40, (2-Ethylsulfanylquinazolino-4-yl)-(1-methoxymethylpropyl)-amine], the Glucose absorption was determined as 1.2.

In turn, `OCCOCCNc1nc(Cc2ccccc2)nc2ccccc12` [Compound 221, 2-[2-(2-Benzylquinazolino-4-ylamino)-ethoxy]-ethanol] gave a Glucose absorption of 1.5.

Take `COc1ccc(CNc2nc(Cc3ccccc3)nc3ccccc23)cc1OC` [Compound 331, (2-Benzylquinazolino-4-yl)-(3,4-dimethoxybenzyl)-amine]: the Glucose absorption was 1.2.

Regarding `COc1ccc(CNc2nc(-c3ccc(Cl)cc3)nc3ccccc23)cc1` [Compound 261, [2-(4-Chlorophenyl)-quinazolino-4-yl]-(4-methoxybenzyl)-amine], the Glucose absorption was found to be 1.1.

The molecule `CCSc1nc(NCCN2CCCC2)c2ccccc2n1` [Compound 45, (2-Ethylsulfanylquinazolino-4-yl)-(2-pyrrolidino-1-ylethyl)-amine] showed a Glucose absorption of 1.1.

Consider `c1ccc2c(CNc3nc(-c4ccncc4)nc4ccccc34)cccc2c1` [Compound 253, Naphthaleno-1-ylmethyl-(2-pyridino-4-ylquinazolino-4-yl)-amine], for which the Glucose absorption is 1.3.

As to `Clc1ccc(CNc2nc(-c3ccccc3)nc3ccccc23)cc1` [Compound 88, (4-Chlorobenzyl)-(2-phenylquinazolino-4-yl)-amine], the Glucose absorption is 1.1.

Consider `COc1ccc(OC)c(CCNc2nc(-c3ccccc3)nc3ccccc23)c1` [Compound 122, [2-(2,5-Dimethoxyphenyl)-ethyl]-(2-phenylquinazolino-4-yl)-amine], for which the Glucose absorption is 1.3.

Molecule `CCSc1nc(NCCN2CCCCC2)c2ccccc2n1` [Compound 44, (2-Ethylsulfanylquinazolino-4-yl)-(2-piperidino-1-ylethyl)-amine] yielded a Glucose absorption of 1.3.

For `Cc1nc(NCCOCCO)c2ccccc2n1` [Compound 173, 2-[2-(2-Methylquinazolino-4-ylamino)-ethoxy]-ethanol], the Glucose absorption turned out to be 1.3.

For the molecule `c1ccc(CNc2nc(-c3ccncc3)nc3ccccc23)cc1` [Compound 247, Benzyl-(2-pyridino-4-ylquinazolino-4-yl)-amine], the Glucose absorption was 1.3.

Molecule `Cc1ccc(Nc2nc(-c3ccccc3)nc3ccccc23)c(C)c1` [Compound 73, (2,4-Dimethyl-phenyl)-(2-phenylquinazolino-4-yl)-amine] registered a Glucose absorption of 1.0.

Molecule `CC(C)(C)c1nc(NCc2cccc3ccccc23)c2ccccc2n1` [Compound 193, (2-tert-Butylquinazolino-4-yl)-naphthaleno-1-ylmethylamine] came in with a Glucose absorption of 1.3.

With `Fc1cccc(CNc2nc(-c3ccc(Cl)cc3)nc3ccccc23)c1` [Compound 267, [2-(4-Chlorophenyl)-quinazolino-4-yl]-(3-fluorobenzyl)-amine], the Glucose absorption is 1.0.

`CCSc1nc(NCc2cc(OC)cc(OC)c2)c2ccccc2n1` [Compound 38, (3,5-Dimethoxybenzyl)-(2-ethylsulfanylquinazolino-4-yl)-amine] showed a Glucose absorption of 1.5.

With `c1ccc(CN2CCC(Nc3nc(-c4ccccc4)nc4ccccc34)CC2)cc1` [Compound 105, (1-Benzyl-piperidino-4-yl)-(2-phenylquinazolino-4-yl)-amine], the Glucose absorption worked out at 1.2.

In turn, `COc1cccc(CNc2nc(C(C)(C)C)nc3ccccc23)c1` [Compound 188, (2-tert-Butylquinazolino-4-yl)-(3-methoxybenzyl)-amine] had a Glucose absorption of 1.0.

Consider `CN1CCN(CCNc2nc(-c3ccccc3)nc3ccccc23)CC1` [Compound 158, [2-(4-Methylpiperazino-1-yl)-ethyl]-(2-phenylquinazolino-4-yl)-amine], for which the Glucose absorption stood at 2.0.

`Clc1ccc(-c2nc(NCCCCc3ccccc3)c3ccccc3n2)cc1` [Compound 264, [2-(4-Chlorophenyl)-quinazolino-4-yl]-(4-phenylbutyl)-amine] registered a Glucose absorption of 1.1.

With `c1ccc(Oc2ccccc2Nc2nc(-c3ccccc3)nc3ccccc23)cc1` [Compound 80, (2-Phenoxy-phenyl)-(2-phenylquinazolino-4-yl)-amine], the Glucose absorption is listed as 1.0.

With `COc1cc(CNc2nc(-c3ccccc3)nc3ccccc23)cc(OC)c1` [Compound 92, (3,5-Dimethoxybenzyl)-(2-phenylquinazolino-4-yl)-amine], the Glucose absorption is recorded as 1.4.

For `COc1ccc(CNc2nc(-c3ccncc3)nc3ccccc23)cc1` [Compound 249, (4-Methoxybenzyl)-(2-pyridino-4-ylquinazolino-4-yl)-amine], the Glucose absorption is recorded as 0.9.

On to `O=C1CCCN1CCCNc1nc(-c2ccccc2)nc2ccccc12` [Compound 150, 1-[3-(2-Phenylquinazolino-4-ylamino)-propyl]-pyrrolidino-2-one], for which the Glucose absorption came to 2.6.

The molecule `COc1ccc(Nc2nc(-c3ccccc3)nc3ccccc23)cc1` [Compound 70, (4-Methoxyphenyl)-(2-phenylquinazolino-4-yl)-amine] registered a Glucose absorption of 1.0.

Molecule `FC(F)(F)c1cccc(CNc2nc(C3CCCCC3)nc3ccccc23)c1` [Compound 202, (2-Cyclohexylquinazolino-4-yl)-(3-trifluoromethylbenzyl)-amine] showed a Glucose absorption of 1.4.

As for `c1ccc(CNc2nc(-c3ccccc3)nc3ccccc23)cc1` [Compound 86, Benzyl-(2-phenylquinazolino-4-yl)-amine], the Glucose absorption was determined as 1.4.

Turning to `CCN1CCCC1CNc1nc(-c2ccccc2)nc2ccccc12` (stereo not shown) [Compound 117, (1-Ethyl-pyrrolidino-2-ylmethyl)-(2-phenylquinazolino-4-yl)-amine], the Glucose absorption came to 1.4.

The molecule `COCCNc1nc(-c2ccccc2)nc2ccccc12` [Compound 67, (2-Methoxy-ethyl)-(2-phenylquinazolino-4-yl)-amine] gave a Glucose absorption of 0.9.

The molecule `COc1ccc(CNc2nc(-c3cccnc3)nc3ccccc23)cc1` [Compound 237, (4-Methoxybenzyl)-(2-pyridino-3-ylquinazolino-4-yl)-amine] gave a Glucose absorption of 0.9.

`c1ccc(-c2nc(NCCN3CCCC3)c3ccccc3n2)cc1` [Compound 100, (2-Phenylquinazolino-4-yl)-(2-pyrrolidino-1-ylethyl)-amine]: the Glucose absorption is reported as 1.4.

Turning to `Fc1cccc(CNc2nc(Cc3ccccc3)nc3ccccc23)c1` [Compound 219, (2-Benzylquinazolino-4-yl)-(3-fluorobenzyl)-amine], the Glucose absorption is given as 2.3.

The molecule `FC(F)(F)c1cccc(CNc2nc(Cc3ccccc3)nc3ccccc23)c1` [Compound 214, (2-Benzylquinazolino-4-yl)-(3-trifluoromethylbenzyl)-amine] gave a Glucose absorption of 2.0.

The molecule `CCSc1nc(NC2CCCCC2)c2ccccc2n1` [Compound 27, Cyclohexyl-(2-ethylsulfanylquinazolino-4-yl)-amine] registered a Glucose absorption of 1.0.

With `c1ccc(Oc2cccc(Nc3nc(-c4ccccc4)nc4ccccc34)c2)cc1` [Compound 81, (3-Phenoxy-phenyl)-(2-phenylquinazolino-4-yl)-amine], the Glucose absorption worked out at 0.9.

As for `Clc1ccc(-c2nc(NCc3cccc4ccccc34)c3ccccc3n2)cc1` [Compound 265, [2-(4-Chlorophenyl)-quinazolino-4-yl]-naphthaleno-1-ylmethylamine], the Glucose absorption turned out to be 1.1.

Consider `c1ccc(CNc2nc(-c3ccccn3)nc3ccccc23)cc1` [Compound 223, Benzyl-(2-pyridino-2-ylquinazolino-4-yl)-amine], for which the Glucose absorption was determined as 1.7.

Regarding `COc1cc(OC)c(CNc2nc(-c3ccccc3)nc3ccccc23)c(OC)c1` [Compound 337, (2-Phenylquinazolino-4-yl)-(2,4,6-trimethoxybenzyl)-amine], the Glucose absorption was 1.3.

As for `COc1ccc(CNc2nc(Cc3ccccc3)nc3ccccc23)cc1` [Compound 213, (2-Benzylquinazolino-4-yl)-(4-methoxybenzyl)-amine], the Glucose absorption is 1.4.

Molecule `OCCOCCNc1nc(-c2cccnc2)nc2ccccc12` [Compound 245, 2-[2-(2-Pyridino-3-ylquinazolino-4-ylamino)-ethoxy]-ethanol] displayed a Glucose absorption of 1.2.

Take `c1ccc(-c2nc(NC3CCCCC3)c3ccccc3n2)cc1` [Compound 51, Cyclohexyl-(2-phenylquinazolino-4-yl)-amine]: the Glucose absorption is reported as 1.0.

Values taken from patent US20080207614A1, “QUINAZOLINE DERIVATIVES FOR THE TREATMENT AND PREVENTION OF DIABETES AND OBESITY” (SK CHEMICALS CO., LTD., priority 2004, published 2008).
